Here are results for two molecules from patent publication US9333193B2, “Compositions and methods for treating tuberculosis” (priority 2010, dated 2016).

One assay deals with TB organisms. Conditions: cited from earlier work.
Assay [1] concerns Mycobacterium smegmatis mc2155. As to the kind of experiment: Anti-mycobacterial activity of nitazoxanides, MIC in Middlebrook 7H9. It is filed as cell-based. Particulars: Middlebrook 7H9, 37° C. The method, then:
(§1) (1) Strains: Mycobacterium smegmatis mc2155, Mycobacterium chelonae EOP-1, Mycobacterium marinum ATCC 927, Mycobacterium avium Va14(T), and Mycobacterium abscessus AAy-P-1).
(§2) (2) Medium: Middlebrook 7H9 containing 0.5% (vol/vol) glycerol and 10% (vol/vol) oleic acid-albumin.
(§3) (3) Incubation Temperature: 37° C., except M. marinum 30° C.
(§4) (4) Nitazoxanides: Precipitates were present in wells of nitazoxanides with high concentrations (250-31 μg/mL) except for 162080, 162088, 16b2026, and 16b2031.
(5) Decolorization: Almost all the yellow nitazoxanides, namely 16b1090, 16b1092 and 16b1093, 16b1094, 16b2023, 16b2025, and 16b2026 were decolorized by M. smegmatis strain mc2155. None of the other mycobacterial strains decolorized the compounds. Note that the compound numbers are also referred to herein with the prefix VPC.
(§5) The strains used were Mycobacterium smegmatis mc2155, Mycobacterium chelonae EOP-1, Mycobacterium marinum ATCC 927, Mycobacterium avium Va14(T), and Mycobacterium abscessus AAy-P-1. The medium use was Middlebrook 7H9 containing 0.5% (vol/vol) glycerol and 10% (vol/vol) oleic acid-albumin. Incubation Temperature was 37° C., except for M. marinum at 30° C. For nitazoxanides, precipitates were present in wells of nitazoxanides with high concentrations (250-31 μg/mL) except for 162080, 162088, 16b2026, and 16b2031.
Decolorization: Almost all the yellow nitazoxanides, namely 16b1090, 16b1092 and 16b1093, 16b1094, 16b2023, 16b2025, and 16b2026 were decolorized by M. smegmatis strain mc2155. None of the other mycobacterial strains decolorized the compounds.

Assay [2] deals with Mycobacterium chelonae EOP-1. Described as above. It is filed as cell-based. Particulars: Middlebrook 7H9, 37° C. The method, then: as §1, §2, §3, §4, §5
Assay [3] relates to Mycobacterium marinum ATCC 927. The description is as above. The assay is classed as cell-based. Conditions: Middlebrook 7H9, 30° C. The procedure:
as §1, §2, §3, §4, §5

Assay [4] deals with Mycobacterium abscessus AAy-P-1. The assay is described as above. The assay is classed as cell-based. Conditions: Middlebrook 7H9, 37° C. The procedure:
as §1, §2, §3, §4, §5

Assay [5] concerns Mycobacterium avium Va14(T). Described as above. It is filed as cell-based. Conditions: Middlebrook 7H9, 37° C. The method, then:
as §1, §2, §3, §4, §5

Assay [6] relates to Mycobacterium tuberculosis. Conditions: agar proportion.
A further assay deals with M. tuberculosis. As to the kind of experiment: microbe, parasite or virus in culture. The assay is classed as cell-based, Mycobacterium tuberculosis. The arrangement: % Inhibit growth, H37Rv / % Inhibit growth, Susceptible / % Inhibit growth, MDR / % Inhibit growth, XDR / inhibition: dose or concentration left out as unconfirmed. Conditions: agar proportion method.

Values after ≈ are worked out from the molar mass of the structure shown. Like-named read-outs stand apart in the source and are kept apart here.

For the molecule `CC(=O)Oc1ccccc1C(=O)Nc1ncc([N+](=O)[O-])s1` [Nitazoxanide, 2-(acetyloxy)-N-(5-nitro-2-thiazolyl)benzamide, reference compound], the “Action against TB in presence of proteins found in serum” value in the assay on TB organisms is “inhibited by proteins that would be found in serum”. In addition, the MIC in assay [1] (Mycolicibacterium smegmatis, MC2155, read-out: Minimal Inhibitory Concentration, M. smegmatis) was > 250 mg/L; in assay [2] (read-out: Minimal Inhibitory Concentration, M. chelonae) it was 63 mg/L (≈ 205 µM); in assay [3] (Mycobacterium marinum, ATCC927, read-out: Minimal Inhibitory Concentration, M. marinum) it was 31 mg/L (≈ 101 µM); in assay [4] (Mycobacteroides abscessus, AAYP1, read-out: Minimal Inhibitory Concentration, M. abscessus) it was 63 mg/L (≈ 205 µM); in assay [5] (Mycobacterium avium, read-out: Minimal Inhibitory Concentration, M. avium), 250 mg/L (≈ 814 µM).

In the case of `O=C(Nc1sc([N+](=O)[O-])cc1[N+](=O)[O-])c1cccc(C(F)(F)F)c1` [VPC16b1092], the MIC in assay [6] (isolate 234 (MDR-TB)) came to 2000 mg/L (≈ 5540 µM); in assay [6] (isolate 283 (susceptible)), 2000 mg/L (≈ 5540 µM); in assay [6] (isolate 565 (MDR-TB)) it was 2000 mg/L (≈ 5540 µM); in assay [6] (isolate 694 (MDR-TB)), 1000 mg/L (≈ 2770 µM); in assay [6] (isolate 750 (MDR-TB)), 2000 mg/L (≈ 5540 µM); in assay [6] (isolate 823 (XDR-TB)) it was 2000 mg/L (≈ 5540 µM). The MIC in assay [6] (isolate 971 (MDR-TB)) and in assay [6] (isolate H37Rv (Reference)) was 2000 mg/L (≈ 5540 µM) in each case. Also, the “Minimal Inhibitory Concentration, M. smegmatis” value in assay [1] was determined as 31 µg/mL. In addition, the “% Inhibit growth, MDR” value with M. tuberculosis (MDR strain) is 100%. Further, the “% Inhibit growth, Susceptible” value in the assay with M. tuberculosis (Susceptible strain) is 100%. Besides, the “% Inhibit growth, XDR” value with M. tuberculosis (XDR strain) was 100%. Also, the “Potency against M. tuberculosis in words (Table 1)” value in the assay with M. tuberculosis is “most potent”. Also, in the assay on M. tuberculosis (strain H37Rv), the “% Inhibit growth, H37Rv” value came to 100%. In addition, in assay [2], the “Minimal Inhibitory Concentration, M. chelonae” value worked out at 4 µg/mL. Moreover, the “Minimal Inhibitory Concentration, M. marinum” value in assay [3] was determined as 4 µg/mL. The “Minimal Inhibitory Concentration, M. abscessus” value in assay [4] was 0.25 µg/mL. For the same molecule, the “Minimal Inhibitory Concentration, M. avium” value in assay [5] was 8 µg/mL.
